This is an account of results in patent US20250122190A1, “HALOGEN-SUBSTITUTED PYRIDAZINONE COMPOUND AND APPLICATION THEREOF” (MEDSHINE DISCOVERY INC., priority 2021, published 2025).

Molecules are shown by their SMILES. Where two headings read alike, the source gives them in different places.

Data set [1] concerns rat models of hypertensive renal disease. The experiment in a line: Pharmacodynamic study in DOCA-NaCl induced hypertensive renal disease model. The data set is classed as in vivo, male SD rats. The source says:
PD and pharmacodynamic studies on the compounds of the present disclosure in male SD rat models of hypertension induced with deoxycorticosterone acetate-sodium chloride (DOCA-NaCl).
Prior to commencing the procedure, 7-8 weeks old male SD rats were allowed one week acclimatization. On the day of surgery, the table of the surgical area was disinfected with a disinfectant, and the rats were anesthetized with 2%-5% isoflurane and fixed on the table. The abdominal hair was removed and the surgical skin was disinfected. The skin and abdominal wall were cut open to expose the right kidney. The arteries and veins near the renal hilum were ligated. After it was confirmed that there were no bleeding points, the renal blood vessels and surrounding ligaments were bluntly separated and the right kidney was removed. After it was confirmed that there were no bleeding points, the abdominal wall muscle and skin were sutured. After the rats woke up, they were returned to the cage and observed. The rats were injected subcutaneously with meloxicam injection once a day for 3 consecutive days for pain relief.
One week after unilateral kidney removal, the animals were randomly divided into vehicle group, low dose group and high dose group according to body weight/blood pressure. The drinking water of animals in all groups was changed to an aqueous solution containing 1% sodium chloride+0.2% potassium chloride. […]

Data set [2] in a line: Rat group tissue distribution test. The data set is classed as in vivo, SD male rats. Particulars: intragastric, SD rats, n = 3; for concentration at 1 h / concentration at 4 h / concentration at 12 h: male, Sprague Dawley, rat, oral, read-out: Average drug concentration. The source says: In this study, SD male rats were selected as the test animals, and the LC/MS/MS method was used to quantitatively determine the drug concentration at different time points in the plasma, cerebrospinal fluid, brain, liver, and kidney of the test compounds administered orally to evaluate the tissue distribution of the test drugs in the rats.
Experimental materials: Sprague Dawley (SD) rats (male, 200-300 g, 7-10 weeks old, Beijing Vital River).
A clear solution or suspension of the test compounds was administered intragastrically into SD rats (fasted) (vehicle: 5% DMSO/10% Kolliphor® HS 15/85% water). […] The mixture was vortexed thoroughly and centrifuged at 3200 g, 4° C. for 10 minutes to obtain the plasma. The cerebrospinal fluid (about 0.02 mL) was collected. The brain, liver, and kidney were collected, rinsed with pre-cooled physiological saline, dried with paper, and then homogenated in a ratio of 1:4 (1 g of tissue: 4 mL of 15 mM phosphate-buffered physiological saline/MeOH (2:1)). The LC-MS/MS method was used to determine the drug concentration, and the Phoenix WinNonlin 6.3 pharmacokinetic software was used to calculate the relevant pharmacokinetic parameters by the non-compartmental model linear logarithmic trapezoidal method.

Turning to `O=c1[nH]ncc(N2CCc3c(ncnc3Sc3ccc(F)cc3C(F)(F)F)C2)c1Cl` [Compound WX002], in data set [1] (30 mg/kg and 60 mg/kg intragastrically once a day for 28 days, vs vehicle control group), the urinary albumin level result is given as “significantly reduce”. Moreover, in data set [1] (low and high dose, intragastrically once a day for 28 days, vs vehicle group), the “expression of urinary Rac1” value is recorded as “dose-dependently reduce”.
In the case of `O=c1[nH]ncc(N2CCc3c(nc(CO)nc3Sc3ccc(F)cc3C(F)(F)F)C2)c1Cl` [Compound WX012], the Average drug concentration result in data set [2] (Brain, 12 h) is “BQL”. Moreover, the concentration at 1 h in data set [2] (Brain) was determined as 282 nM; in data set [2] (Kidney), 2630 nM; in data set [2] (Liver) it was 5120 nM; in data set [2] (Plasma), 773 nM. Further, the concentration at 4 h came out at 373 nM in data set [2] (Brain), 3440 nM in data set [2] (Kidney), 5820 nM in data set [2] (Liver) and 1080 nM in data set [2] (Plasma). The concentration at 12 h stood at 276 nM in data set [2] (Kidney, 12 h); 570 nM in data set [2] (Liver, 12 h); 82.7 nM in data set [2] (Plasma, 12 h).
With `Nc1nc2c(c(Sc3ccc(F)cc3C(F)(F)F)n1)CCN(c1cn[nH]c(=O)c1Cl)C2` [Compound WX013], the concentration at 1 h in data set [2] (Brain) is 139 nM; in data set [2] (Kidney), 1260 nM; in data set [2] (Liver), 2610 nM; in data set [2] (Plasma), 536 nM. The concentration at 4 h in data set [2] (Brain) came out at 197 nM; in data set [2] (Kidney), 1470 nM; in data set [2] (Liver), 3360 nM; in data set [2] (Plasma), 716 nM. Moreover, the concentration at 12 h in data set [2] (Brain, 12 h) is 86 nM; in data set [2] (Kidney, 12 h), 590 nM; in data set [2] (Liver, 12 h), 945 nM; in data set [2] (Plasma, 12 h), 272 nM.
